In BindingDB's records for doi:10.1021/jm00124a027 (Syntex Research, 1989):

Experiment: Inhibition of thromboxane A2 synthetase as reduced ADP-induced aggregation of human platelet rich plasma in the presence of pig aortal microsomes

| Structure (SMILES) | IC50 |
| --- | --- |
| C/C(=C/c1ccc(Cc2cccnc2)n1-c1ccccc1)C(=O)O | 24000 nM |
| C/C(=C\c1ccc(Cn2ccnc2)[nH]1)C(=O)O | 9100 nM |
| C/C(=C/c1cc(Cc2cccnc2)n(C(C)(C)C)c1)C(=O)O | 44 nM |
| C/C(=C/c1ccc(Cc2cccnc2)n1C)C(=O)O | 50 nM |
| C/C(=C/c1ccc(Cc2cccnc2)n1CC(C)(C)C)C(=O)O | 78000 nM |
| Cn1c(/C=C/C(=O)O)ccc1Cn1ccnc1 | 3800 nM |
| C/C(=C/c1ccc(Cn2ccnc2)n1C)C(=O)O | 1000 nM |
| Cn1cc(/C=C/C(=O)O)cc1Cn1ccnc1 | 4600 nM |
| C/C(=C\c1cc(Cn2ccnc2)n(C)c1)C(=O)O | 1600 nM |
| COC(=O)[C@@H]1CC1c1ccc(Cn2ccnc2)n1C (some centres not stated) | 9100 nM |
| CCn1c(/C=C(/C)C(=O)O)ccc1Cc1cccnc1 | 42 nM |
| C/C(=C/c1ccc(Cc2cccnc2)n1C(C)C)C(=O)O | 2100 nM |
